Laboratory results as given in US20260374818A1, “CATIONIC PEPTIDES WITH BROAD SPECTRUM ACTIVITY” (priority 2023, published 2026).
Where a SMILES comes first, the peptide text is derived from it. [ ]: non-standard residue; d: D form.

Legend:
[1] = tested on: P. aeruginosa 27312 wound biofilms; test: Porcine dermal biofilm wound infection model, P. aeruginosa; type: in vivo, porcine; Pseudomonas aeruginosa; conditions: compared with ciprofloxacin, silver sulfadiazine
From the text: (§1) . Peptide (PEP1=DJK5; PEP3=AB103-D) solutions were used to hydrate Puracol® resorbable dressings made of collagen either alone or in the presence of antibiotic (ABX1=ciprofloxacin). Briefly, partial thickness wounds (10 mm×7 mm×1 mm deep) were created on the backs of the animals then infected with log-phase cultures of bacteria and allowed biofilms to form for 24-hrs. Dressings were applied to infected wounds of either MRSA S. aureus USA300 (FIG. 6A) or P. aeruginosa 27312 (FIG. 6B) as either a single treatment (day 1) or twice treated (Day 1 and 4) and all wounds were excised on day 7 for CFU renumeration. The amount of peptide applied in all treatments was 10 mg while 1 mg of ciprofloxacin was used in and treatment containing antibiotic. Mupirocin and silver sulfadiazine (SSD) were used as positive controls.
(§2) In vivo porcine dermal biofilm model: Peptide loaded dressings were evaluated using a porcine dermal biofilm infection model as described previously [Davis, S. C., et al. (2018). The wound-healing effects of a next-generation anti-biofilm silver Hydrofiber wound dressing on deep partial-thickness wounds using a porcine model. International Wound Journal, 15(5), 834-839]. Briefly, partial thickness wounds (10 mm×7 mm×1 mm deep) were created on the backs of the animals then infected with log-phase cultures of bacteria and allowed biofilms to form for 24-hrs. […]

[2] = tested on: P. aeruginosa PAO1 biofilms; test: Checkerboard biofilm synergy of AB103-D with antimicrobials, PAO1; type: cell-based, Pseudomonas aeruginosa
[3] = tested on: P. aeruginosa LESB58 biofilms on Ker-CT epidermal skin; test: Skin organoid biofilm model, AB103-D loaded Medvance foam dressing, P. aeruginosa LESB58; type: cell-based, Pseudomonas aeruginosa
[4] = tested on: human bronchiolar epithelial cells (HBEs); test: Cytotoxicity (LDH release), human bronchiolar epithelial cells
[5] = tested on: 3-day-old oral plaque (multispecies) biofilms; test: Oral plaque biofilm model, long-term (1-3 days) exposure, dead cell volume; type: cell-based
N/TERT keratinocytes = test: Cytotoxicity (LDH release), N/TERT keratinocytes
[6] = tested on: P. aeruginosa biofilms on N/TERT epithelial skin; test: Skin organoid biofilm model, peptide-loaded collagen dressings, P. aeruginosa; type: cell-based, Pseudomonas aeruginosa; conditions: compared to DJK-5 and ciprofloxacin
[7] = tested on: peripheral blood mononuclear cells (PBMCs); test: Cytotoxicity (LDH release), PBMCs
[8] = tested on: S. aureus USA300 (MRSA) wound biofilms; test: Porcine dermal biofilm wound infection model, MRSA; type: in vivo, porcine; methicillin resistant Staphylococcus aureus; conditions: compared with ciprofloxacin, mupirocin
From the text: as §1, §2

[9] = tested on: oral multispecies biofilm; test: Oral multispecies biofilm development on HA disks; type: cell-based; conditions: 10 μg/ml, 3 days
[10] = tested on: 3-day-old oral plaque biofilms; test: Oral plaque biofilm model, brief (1 minute) exposure, dead cell volume; type: cell-based; conditions: 10 μg/ml, 1 minute once or three times, compared to DJK5
[11] = tested on: 3-day-old oral plaque biofilms; test: Plaque biofilms treated with oral rinse solutions for 14 days; type: cell-based; conditions: 0.12% CHX+10 μg/mL peptide, twice daily
Description: Briefly, after the formation of a 3-day-old biofilm, HA disks were rinsed in PBS for 1 minute and assigned to one of five treatment groups: (i) sterile water, (ii) Listerine Total Care Mouthwash (Johnson & Johnson Inc., Canada), (iii) GUM Paroex Mouthwash (Sunstar, USA), (iv) 0.12% CHX+10 μg/mL of peptide DJK-5, and (v) 0.12% CHX+10 μg/mL of peptide AB103-D. For each treatment, the disks were treated twice each day (i.e. at 8 am and […] for the first and second time, respectively). Treatment consisted of a droplet of 40 μl of each solution spread on the surface of the biofilm for 1 minute, followed by rinsing with PBS for 1 minute and then placing the disk back into the 24-well plates under anaerobic conditions at 37 °C. On the 0, 1st, 3rd, 7th, 10th, and 14th day, three disks from each group were collected for confocal microscopy analysis. Biofilms were stained with fluorescent dyes SYTO-9 and propidium iodide, which stain live cells green and dead cells red, respectively. The scale bar represents 200 μm. […]. […] The results indicated improved antibiofilm effects of AB103-D on 3-day-old oral plaque biofilms compared to treatment by various oral rinse solutions for 14 days.

[12] = tested on: MRSA biofilms on N/TERT epithelial skin; test: Skin organoid biofilm model, peptide-loaded collagen dressings, MRSA; type: cell-based, methicillin resistant Staphylococcus aureus; conditions: compared to DJK-5 and ciprofloxacin
[13] = tested on: MRSA biofilms on Ker-CT epidermal skin; test: Skin organoid biofilm model, AB103-D loaded Medvance foam dressing, MRSA; type: cell-based, methicillin resistant Staphylococcus aureus
[14] = tested on: MRSA biofilms on human skin organoid; test: Skin organoid biofilm infection model, peptide solution, MRSA; type: cell-based, methicillin resistant Staphylococcus aureus; conditions: peptide solution 4 hrs (FIG. 3A)

CC[C@@H](C)[C@@H](NC(=O)[C@@H](C)NC(=O)[C@@H](CCCNC(=N)N)NC(=O)[C@@H](Cc1c[nH]c2ccccc12)NC(=O)[C@@H](CCC(N)=O)NC(=O)[C@H](NC(=O)[C@@H](CCCNC(=N)N)NC(=O)[C@H](NC(=O)[C@H](NC(=O)[C@@H](CCCNC(=N)N)NC(=O)[C@H](NC(=O)[C@H](N)CCCNC(=N)N)C(C)C)C(C)C)[C@H](C)CC)C(C)C)C(N)=O [AB103-D, rvrvirvqwrai-NH2] (H-[dR][dV][dR][dV][dI][dR][dV][dQ][dW][dR][dA][dI]-NH2)
Efficacy in porcine skin infection [1]: worked as well or better than ciprofloxacin, mupirocin (for MRSA) or silver sulfadiazine (for P. aeruginosa)
MBIC of AB103-D alone ([2]; PAO1, BM2 minimal media, at least 70% reduction of biofilm biomass): 2 µg/mL
Synergy with several other antimicrobials ([2]; PAO1 biofilms): proved synergistic with several other antimicrobials
Bacterial burden on organoid skin, loaded bandage [3]: effectively reduce the bacterial burden
Cytotoxicity (LDH) [4]: low toxicity
Proportion of dead biofilm cells ([5]; 10 μg/ml, daily for 3 days, compared to DJK5 (FIG. 16A)): superior to DJK5 at killing bacteria cells
Proportion of dead biofilm cells ([5]; 1 or 5 μg/ml, daily for 3 days, compared to DJK5 (FIG. 16A)): killed more of the biofilm cells
Proportion of dead biofilm cells ([5]; all three concentrations, one day (FIG. 16C)): killed more biofilm cells than DJK5
Proportion of dead biofilm cells ([5]; all three concentrations, two days (FIG. 16B)): killed more biofilm cells than DJK5
Cytotoxicity (LDH) (N/TERT keratinocytes): low toxicity
Antibiofilm activity from collagen dressing [6]: clearly superior activity to both DJK-5 and ciprofloxacin
Cytotoxicity (LDH) [7]: low toxicity
Efficacy in porcine skin infection [8]: worked as well or better than ciprofloxacin, mupirocin (for MRSA)
Total biovolume [9]: reduced total biovolume
Percentage of dead bacterial cell volume ([9]; compared to DJK5): significantly higher percentage of dead bacterial cell volume compared to DJK5 treatment
Killing of 3-day-old oral plaque biofilms [10]: significantly more effective than DJK5
Proportion of dead bacteria within the biofilm [11]: more effective than DJK5
Residual plaque biovolume [11]: superior than DJK5
Antibiofilm activity from collagen dressing [12]: clearly superior activity to both DJK-5 and ciprofloxacin
Broad spectrum antibiofilm activity, more active than DJK5 (ESKAPEE Pathogens): 2-4 fold
Bacterial burden on organoid skin, loaded bandage [13]: effectively reduce the bacterial burden
Antibiofilm activity on skin organoid [14]: excellent antibiofilm activity
